Test [1] has as its target Muscarinic acetylcholine receptor M3 (Cavia porcellus) (UniProt Q8VH26). The following applies: Ileum.
Description: Peripheral postsynaptic muscarinic activity by contraction of the guinea pig ileum.
Test [2] concerns the target T1, Muscarinic acetylcholine receptor M1 (Rattus norvegicus) (UniProt P08482).
T1 sequence (whole entry): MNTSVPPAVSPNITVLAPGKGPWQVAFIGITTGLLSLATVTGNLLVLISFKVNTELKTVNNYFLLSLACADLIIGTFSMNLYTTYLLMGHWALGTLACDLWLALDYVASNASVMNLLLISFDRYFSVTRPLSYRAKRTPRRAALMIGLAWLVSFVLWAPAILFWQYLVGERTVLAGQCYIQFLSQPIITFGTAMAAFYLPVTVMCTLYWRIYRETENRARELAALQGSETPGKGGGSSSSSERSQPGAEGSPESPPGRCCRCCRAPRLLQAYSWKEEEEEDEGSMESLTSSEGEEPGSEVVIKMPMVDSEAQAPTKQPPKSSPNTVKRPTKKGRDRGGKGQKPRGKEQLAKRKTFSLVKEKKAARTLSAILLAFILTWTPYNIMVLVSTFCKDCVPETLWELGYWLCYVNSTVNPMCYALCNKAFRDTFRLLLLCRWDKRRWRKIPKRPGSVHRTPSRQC
The following applies: Hippocampus.

Test [3] has as its target T1, Muscarinic acetylcholine receptor M1 (Rattus norvegicus). The following applies: Cervical ganglion.
The target of test [4] is T2, Muscarinic acetylcholine receptor M1 (Rattus norvegicus, UniProt P08482).
T2 sequence (P08482 whole entry): T1 sequence (whole entry)
Description: Ability to displace [3H]pirenzepine (pir) from muscarinic acetylcholine receptor M1 in rat cortical tissue.

In test [5] the target is Muscarinic acetylcholine receptor.
Description: Ability to displace [3H]cis--2-methyl-5-((dimethylamino)methyl)-1,3-di oxolane from muscarinic acetylcholine receptor in rat cortical tissue.
For test [6], the species on record is Cavia porcellus. Briefly: (§1) Peripheral postsynaptic muscarinic activity was measured by contraction of the guinea pig ileum in M3 model. Format: functional.
For test [7], the target named is Muscarinic acetylcholine receptor M3 (Cavia porcellus) (UniProt Q8VH26). Nature of the test: Peripheral postsynaptic muscarinic activity was measured relative to muscarine (100%). Format: functional.
For test [8] the target is unchanged. Described as §1. It counts as functional, tissue-based.
In test [9] the target is T1, Muscarinic acetylcholine receptor M1 (Rattus norvegicus). Nature of the test: Neuronal postsynaptic muscarinic activity was measured by firing rate of the rat hippocampal CA1 neurons in M1 model. It counts as functional, tissue-based. The conditions noted are these: Hippocampus.
Test [10] has as its target T2, Muscarinic acetylcholine receptor M1. Nature of the test: Compound was tested for its ability to displace [3H]pirenzepine (pir) from M1 Muscarinic receptor in rat cortical tissue.
For test [11], the target named is Muscarinic acetylcholine receptor. The source holds these as a separate data set.
Test [12] addresses T1, Muscarinic acetylcholine receptor M1 (Rattus norvegicus). Nature of the test: Central postsynaptic muscarinic activity was measured relative to muscurine (100%). Format: functional, tissue-based.
Test [13] in a line: Ratio of binding affinities towards muscarinic receptor using Pir to that of CD as radioligand.
The target of test [14] is T1, Muscarinic acetylcholine receptor M1 (Rattus norvegicus). Nature of the test: Central postsynaptic muscarinic activity was measured by slow depolarization of the rat cervical ganglion in M1 model. Format: functional, tissue-based.

Muscarinic acetylcholine receptor M3 (Cavia porcellus), sequence (Q8VH26 1-587): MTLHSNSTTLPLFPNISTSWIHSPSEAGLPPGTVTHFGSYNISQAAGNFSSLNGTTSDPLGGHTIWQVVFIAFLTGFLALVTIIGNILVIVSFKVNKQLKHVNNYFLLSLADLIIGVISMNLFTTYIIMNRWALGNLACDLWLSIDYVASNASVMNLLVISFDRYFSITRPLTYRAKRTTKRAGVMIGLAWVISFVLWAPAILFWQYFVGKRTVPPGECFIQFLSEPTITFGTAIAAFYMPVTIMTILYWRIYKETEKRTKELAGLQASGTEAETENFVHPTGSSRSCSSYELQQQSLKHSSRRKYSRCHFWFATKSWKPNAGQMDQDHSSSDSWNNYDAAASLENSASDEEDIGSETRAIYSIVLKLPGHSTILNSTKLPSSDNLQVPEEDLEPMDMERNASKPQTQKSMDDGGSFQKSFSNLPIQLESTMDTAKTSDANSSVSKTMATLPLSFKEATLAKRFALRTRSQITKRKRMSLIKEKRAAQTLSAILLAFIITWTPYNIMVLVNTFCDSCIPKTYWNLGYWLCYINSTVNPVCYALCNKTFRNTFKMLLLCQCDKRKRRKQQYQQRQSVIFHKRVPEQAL

Consider `CC1OCC(CN(C)C)O1` (stereo unspecified), for which the pD2 is 7.5 in [1], 6.3 in [2] and 7.8 in test [3]. The results for the IC50 in test [4] and in test [5] were 2100 nM and 6.4 nM, respectively.

Turning to `Cn1cncc1C[C@H]1COC(=O)C1` [PILOSININE], the pD2 in test [1] was less than 4; in [3], 4.2. The IC50 stood at 10000 nM in test [4] and 2890 nM in test [5].

With `CC[C@H]1C(=O)N(C)C[C@@H]1Cc1cncn1C`, the pD2 in test [1] is less than 4; in test [2], 4.1; in test [3], 4.4. Further, the IC50 in test [4] and in test [5] was 10000 nM throughout.

With `CC[C@H]1C(=O)NC[C@@H]1Cc1cncn1C`, the results for the pD2 in [1], in [2] and in [3] were 4.6, 4.7 and 5.6, respectively. Moreover, the IC50 in test [4] is 9950 nM; in [5], 800 nM.

In the case of `C[N+](C)(C)CCOC(N)=O`, the pD2 in [1] was determined as 6.7; in test [2], 6; in test [3], 7.2.

For `CC[C@H]1C(O)SC[C@@H]1Cc1cncn1C` (stereo partly specified), the results for the pD2 in test [1], in [2] and in [3] were less than 4, less than 4 and 4.7, respectively. The results for the IC50 in [4] and in test [5] were 285 nM and 330 nM, respectively.

`CC[C@H]1C(=O)SC[C@@H]1Cc1cncn1C`: the pD2 in test [1] turned out to be 4.8; in test [2] it was 5.4; in test [3], 4.7. The IC50 was 775 nM in test [4] and 320 nM in [5].

Take `O=C1CCCN1CC#CCN1CCCC1` [OXOTREMORINE]: the figures for the pD2 in test [1], in test [2] and in test [3] were 7.1, 7.1 and 8, respectively. The figures for the half-inhibitory concentration (IC50) in test [4] and in test [5] were 113 nM and 2.8 nM, respectively.

In the case of `C[C@@H]1O[C@H](C[N+](C)(C)C)C[C@H]1O`, the figures for the pD2 in test [1], in test [2] and in [3] were 6.8, 5.9 and 7.4, respectively.

As to `CC[C@@H]1C(=O)SC[C@@H]1Cc1cncn1C`, the pD2 in test [1] is 5.3; in test [2] it was 5.3; in test [3], 6.5. Also, the values for the IC50 in test [4] and in test [5] were 435 nM and 54 nM, respectively.

Take `Cc1ccc(C[N+](C)(C)C)o1`: the pD2 is 5.8 in [2], 7.1 in test [3] and 6.8 in [6]. Moreover, the results for the IC50 in [4] and in [5] were 1410 nM and 5.6 nM, respectively.

For `CC[C@@H]1C(O)SC[C@@H]1Cc1cncn1C` (stereo partly specified), the pD2 in test [1] is less than 4; in test [2], less than 4; in test [3], 4.4. Moreover, the IC50 in test [4] amounted to 695 nM; in test [5] it was 705 nM.

On to `CC[C@@H]1COC[C@@H]1Cc1cncn1C`, for which the pD2 in test [1] was 4.5; in [2], less than 4; in [3], 5.7. For the same compound, the IC50 in test [4] turned out to be 1800 nM; in test [5], 445 nM.

Turning to `CCN1C(=O)OC[C@@H]1Cc1cncn1C`, the pD2 was 5.4 in [1], 5.6 in [2] and 6.1 in test [3]. The values for the IC50 in test [4] and in test [5] were 288 nM and 100 nM, respectively.

On to `CC[C@@H]1C(=O)N(C)C[C@@H]1Cc1cncn1C`, for which the pD2 worked out at 4.2 in test [1] and 100 in [3]. For the same compound, the results for the concentration for half-maximal inhibition (IC50) in test [4] and in test [5] were 10200 nM and 4600 nM, respectively.

Consider `CC[C@@H]1C(=O)NC[C@@H]1Cc1cncn1C`, for which the pD2 was found to be 4.2 in test [1], 4.5 in [2] and 5.2 in test [3]. The IC50 was 5150 nM in [4] and 845 nM in test [5].

Take `CC[C@@H]1C(O)OC[C@@H]1Cc1cncn1C` (stereo partly specified): the Efficiency in test [7] worked out at 22%; in [12], 65%. The pD2 in test [8] was 5.2; in test [9], less than 4; in [14], 5.9. Besides, the IC50 in [10] worked out at 110000 nM; in [11] it was 45000 nM. In addition, the Ratio in [13] came out at 2.4.

For the compound `CC[C@H]1C(=S)SC[C@@H]1Cc1cncn1C`, the results for the pD2 in test [1] and in test [3] were 5.6 and 5.2, respectively. Besides, the IC50 in [4] was determined as 51 nM; in test [5] it was 45 nM.

As a reminder, the IC50 is the concentration that inhibits the measured activity by half.

For the origin of these results see ChEMBL document CHEMBL1126174 (J Med Chem, 1992).
